Measurements taken from publication PMC11148080, “Ru(II)-based complexes containing 2-thiouracil derivatives suppress liver cancer stem cells by targeting NF-κB and Akt/mTOR signaling” (Cell Death Discovery, 2024).
Values joined by “and” are separate entries in the source; they are usually repeats but may differ in a detail not shown here. Equal values may be shown once.

Experiments:
HL-60 = test: Alamar Blue cytotoxicity; assay type: cell-based, human; settings: for IC50: HL-60, 72 h
Protocol: The Alamar Blue assay was used to measure cell viability, as previously described. Adherent cells were seeded in 96-well plates at a density of 7 × 10^3 cells per well, and suspended cells were seeded at 3 × 10^4 cells per well. Drugs were added to each well after overnight incubation for adherent cells or immediately after seeding for suspension cells, and incubation continued for an additional 72 h. […] Four hours (for cell lines) or 24 h (for primary cultures) before the end of incubation, 20 μL of resazurin (30 μM) (Sigma‒Aldrich Co. St. Louis, MO, USA) was added to each well. The absorbance at 570 and 600 nm was measured using a SpectraMax 190 microplate reader (Molecular Devices, Sunnyvale, CA, USA).

4T1 = test: Alamar Blue cytotoxicity; assay type: cell-based, mouse; settings: for IC50: 4T1, 72 h
Protocol: (§1) The Alamar Blue assay was used to measure cell viability, as previously described. Adherent cells were seeded in 96-well plates at a density of 7 × 10^3 cells per well, and suspended cells were seeded at 3 × 10^4 cells per well. Drugs were added to each well after overnight incubation for adherent cells or immediately after seeding for suspension cells, and incubation continued for an additional 72 h. The positive control included doxorubicin (Laboratorio IMA S.A.I.C., Buenos Aires, Argentina). Four hours (for cell lines) or 24 h (for primary cultures) before the end of incubation, 20 μL of resazurin (30 μM) (Sigma‒Aldrich Co. St. Louis, MO, USA) was added to each well. The absorbance at 570 and 600 nm was measured using a SpectraMax 190 microplate reader (Molecular Devices, Sunnyvale, CA, USA).

B16-F10 = test: Alamar Blue cytotoxicity; assay type: cell-based, mouse; settings: for IC50: B16-F10, 72 h
Protocol: as §1

CAL 27 = test: Alamar Blue cytotoxicity; assay type: cell-based, human; settings: for IC50: CAL 27, 72 h
Protocol: as §1

NB4 = test: Alamar Blue cytotoxicity; assay type: cell-based, human; settings: for IC50: NB4, 72 h
Protocol: as §1

OVCAR-3 = test: Alamar Blue cytotoxicity; assay type: cell-based, human; settings: for IC50: OVCAR-3, 72 h
Protocol: as §1

U-87 MG = test: Alamar Blue cytotoxicity; assay type: cell-based, human; settings: for IC50: U-87 MG, 72 h
Protocol: as §1

PBMC = test: Alamar Blue cytotoxicity, noncancerous cells; assay type: cell-based, human; settings: 72 h
Protocol: as §1, with “USA). […]” for “USA).”
PBMC heath peripheral blood mononuclear human primary cell […]
Then, the PBMCs were resuspended in RPMI 1640 or DMEM-F12 supplemented with 20% FBS and 1% antibiotics. The cells were plated at 5 × 10^5 cells/well. Concanavalin A (10 μg/mL, Sigma‒Aldrich) was used as a mitogen to trigger cell division in T lymphocytes and was added at the beginning of the culture. The Research Ethics Committee of the Oswaldo Cruz Foundation

HepG2 cells [1] = test: DNA content assay (internucleosomal DNA fragmentation, cell cycle); assay type: cell-based, human; settings: for DNA fragmentation (sub-G0/G1): HepG2, 72 h, control 5.6%
Protocol: Internucleosomal DNA fragmentation and cell cycle distribution were determined by a DNA content assay. The cells were stained with PI using a solution containing 0.1% Triton X-100, 2 µg/mL PI, 0.1% sodium citrate, and 100 μg/mL RNAse (all from Sigma‒Aldrich) and incubated in the dark for 15 min at room temperature. For all flow cytometry analyses, cellular fluorescence was measured using a BD LSRFortessa cytometer, BD FACSDiva software (BD Biosciences) and FlowJo software 10 (FlowJo LLC; Ashland, OR, USA). A minimum of 10,000 events were obtained per sample for intracellular staining, and a minimum of 30,000 events per sample were acquired for cell surface protein staining. Doublets were removed using FSC-A vs FCS-H and SCC-A vs SCC-H. Cellular debris was excluded from the analysis.

HepG2 cells [2] = test: Annexin V-FITC/PI apoptosis detection; assay type: cell-based, human; settings: for apoptosis (annexin V-FITC+ cells): HepG2, 72 h, control 4.8%; for percentage of necrotic cells: 24, 48, 72 h
Protocol: For apoptosis detection, cell viability was quantified using Annexin V-FITC/PI (FITC Annexin V Apoptosis Detection Kit I, BD Biosciences, San Jose, CA, USA) according to the manufacturer’s instructions. The cells were also stained with rhodamine 123 (5 μg/mL, Sigma Aldrich Co.) for 15 min at 37 °C in the dark to assess the mitochondrial transmembrane potential. After the cells were washed, they were incubated in saline for 30 min in the dark at 37 °C and analyzed by flow cytometry. For all flow cytometry analyses, cellular fluorescence was measured using a BD LSRFortessa cytometer, BD FACSDiva software (BD Biosciences) and FlowJo software 10 (FlowJo LLC; Ashland, OR, USA). A minimum of 10,000 events were obtained per sample for intracellular staining, and a minimum of 30,000 events per sample were acquired for cell surface protein staining. Doublets were removed using FSC-A vs FCS-H and SCC-A vs SCC-H. Cellular debris was excluded from the analysis.

HepG2 cell xenografts = test: HCC tumor growth xenograft model; assay type: in vivo, C.B-17 SCID mice; settings: 21 days; for mean tumor weight: negative control 981 mg
Protocol: A total of 48 C.B-17 SCID mice (male and female, 20–25 g) were obtained from the FIOCRUZ-BA animal facility (Salvador, Bahia, Brazil) in accordance with experimental methods authorized by the local Animal Ethics Committee (#22/2021). All mice were fed a standard pellet diet (food and water available ad libitum) and housed in an artificially lit room (12 h dark/light cycle).
HepG2 cells (10^7 cells/500 μL) were implanted subcutaneously into the left front armpit of mice as previously described. The mice were administered intraperitoneally (200 μL/animal) once a day for 3 weeks. […] The animals were euthanized with an anesthetic overdose (thiopental, 100 mg/kg) 1 day after treatment, and the tumors were removed, weighed, and processed for histological examination.

[3] = HepG2, DOX 1 μM, positive control

## Cc1cc(=O)nc([S][Ru+])[nH]1.F[P-](F)(F)(F)(F)F.c1ccc(-c2ccccn2)nc1.c1ccc(P(c2ccccc2)c2ccccc2)cc1.c1ccc(P(c2ccccc2)c2ccccc2)cc1 [Complex 2, trans-[Ru(6m2TU)(PPh3)2(bipy)]PF6]
HL-60
  IC50: 4.11 µM
4T1
  IC50: 4.52 µM
B16-F10
  IC50: 2750 nM
CAL 27
  IC50: 4310 nM
NB4
  IC50: 5.25 µM
OVCAR-3
  IC50: 1600 nM and 1620 nM
U-87 MG
  IC50: 3.69 µM
PBMC
  IC50: 11.7 µM
HepG2 cells [1]; 1.5 µM
  DNA fragmentation (sub-G0/G1): 18.6%
HepG2 cells [1]; 3 µM
  DNA fragmentation (sub-G0/G1): 39.1%
HepG2 cells [1]; 6 µM
  DNA fragmentation (sub-G0/G1): 72.9%
HepG2 cells [2]; 1.5 µM
  apoptosis (annexin V-FITC+ cells): 9.1%
HepG2 cells [2]; 3 µM
  apoptosis (annexin V-FITC+ cells): 40.7%
HepG2 cells [2]; 6 µM
  apoptosis (annexin V-FITC+ cells): 76.9%
HepG2 cells [2]; HepG2
  percentage of necrotic cells: no significant increase
HepG2 cell xenografts; 2 mg/kg i.p. once a day
  tumor inhibition: 63.6%
  mean tumor weight: 358 mg
HepG2 cell xenografts; 4 mg/kg i.p. once a day
  tumor inhibition: 65.4%
  mean tumor weight: 340 mg

## COc1cccc2c1C(=O)c1c(O)c3c(c(O)c1C2=O)C[C@@](O)(C(=O)CO)C[C@@H]3O[C@H]1C[C@H](N)[C@H](O)[C@H](C)O1 [Doxorubicin]
HL-60; Homo sapiens
  IC50: 0.35 µM
HL-60; IC50 BJ/IC50 HL-60
  Selectivity index: 5.29
HL-60; IC50 MRC-5/IC50 HL-60
  Selectivity index: 4.86
4T1; IC50 BJ/IC50 4T1
  Selectivity index: 1.21
4T1; IC50 MRC-5/IC50 4T1
  Selectivity index: 1.11
4T1; IC50 PBMC/IC50 4T1
  Selectivity index: 0.87
4T1; Mus musculus
  IC50: 1.53 µM
B16-F10; IC50 BJ/IC50 B16-F10
  Selectivity index: 4.30
B16-F10; IC50 MRC-5/IC50 B16-F10
  Selectivity index: 3.95
B16-F10; IC50 PBMC/IC50 B16-F10
  Selectivity index: 3.09
B16-F10; Mus musculus
  IC50: 430 nM
CAL 27; Homo sapiens
  IC50: 110 nM
CAL 27; IC50 BJ/IC50 CAL 27
  Selectivity index: 16.82
CAL 27; IC50 MRC-5/IC50 CAL 27
  Selectivity index: 15.45
CAL 27; IC50 PBMC/IC50 CAL 27
  Selectivity index: 12.09
NB4; Homo sapiens, NB-4
  IC50: 0.09 µM
NB4; IC50 BJ/IC50 NB4
  Selectivity index: 20.56
NB4; IC50 MRC-5/IC50 NB4
  Selectivity index: 18.89
NB4; IC50 PBMC/IC50 NB4
  Selectivity index: 14.78
OVCAR-3; Homo sapiens
  IC50: 1060 nM
OVCAR-3; IC50 BJ/IC50 OVCAR-3
  Selectivity index: 1.75
OVCAR-3; IC50 MRC-5/IC50 OVCAR-3
  Selectivity index: 1.60
OVCAR-3; IC50 PBMC/IC50 OVCAR-3
  Selectivity index: 1.25
U-87 MG; Homo sapiens
  IC50: 0.52 µM
U-87 MG; IC50 BJ/IC50 U-87 MG
  Selectivity index: 3.56
U-87 MG; IC50 MRC-5/IC50 U-87 MG
  Selectivity index: 3.27
U-87 MG; IC50 PBMC/IC50 U-87 MG
  Selectivity index: 2.56
PBMC; Homo sapiens
  IC50: 1.33 µM
HepG2 cells [1]; [3]
  DNA fragmentation: also caused DNA fragmentation
HepG2 cells [2]; [3]
  apoptosis: also led to apoptosis
HepG2 cell xenografts; 1 mg/kg i.p. once a day
  tumor inhibition: 32.2%
  mean tumor weight: 665 mg

## F[P-](F)(F)(F)(F)F.O=c1cc[nH]c([S][Ru+])n1.c1ccc(-c2ccccn2)nc1.c1ccc(P(c2ccccc2)c2ccccc2)cc1.c1ccc(P(c2ccccc2)c2ccccc2)cc1 [Complex 1, trans-[Ru(2TU)(PPh3)2(bipy)]PF6]
HL-60
  IC50: 5.71 µM
4T1
  IC50: 11.7 µM
B16-F10
  IC50: 3040 nM
CAL 27
  IC50: 2660 nM
NB4
  IC50: 4.79 µM
OVCAR-3
  IC50: 2400 nM and 2430 nM
U-87 MG
  IC50: 3.53 µM
PBMC
  IC50: 14.2 µM
HepG2 cells [1]; 2 µM
  DNA fragmentation (sub-G0/G1): 12.3%
HepG2 cells [1]; 4 µM
  DNA fragmentation (sub-G0/G1): 26.7%
HepG2 cells [1]; 8 µM
  DNA fragmentation (sub-G0/G1): 43.1%
HepG2 cells [2]; 2 µM
  apoptosis (annexin V-FITC+ cells): 9.0%
HepG2 cells [2]; 4 µM
  apoptosis (annexin V-FITC+ cells): 48.9%
HepG2 cells [2]; 8 µM
  apoptosis (annexin V-FITC+ cells): 76.1%
HepG2 cells [2]; HepG2
  percentage of necrotic cells: no significant increase
HepG2 cell xenografts; 2 mg/kg i.p. once a day
  tumor inhibition: 35.3%
  mean tumor weight: 635 mg
HepG2 cell xenografts; 4 mg/kg i.p. once a day
  tumor inhibition: 53.6%
  mean tumor weight: 455 mg
